Counter-ions that a name gives are not always drawn.
biological target: T1, human leukocyte elastase (Homo sapiens, UniProt P08246); experiment: Human leukocyte elastase inhibitory activity (substrate MeOSuc-Ala-Ala-Pro-Val-pNA, microtiter plate progress curves); type: biochemical; conditions: HLE, pH 7.8, 25° C., 500 mM NaCl
T1 sequence (P08246 30-267): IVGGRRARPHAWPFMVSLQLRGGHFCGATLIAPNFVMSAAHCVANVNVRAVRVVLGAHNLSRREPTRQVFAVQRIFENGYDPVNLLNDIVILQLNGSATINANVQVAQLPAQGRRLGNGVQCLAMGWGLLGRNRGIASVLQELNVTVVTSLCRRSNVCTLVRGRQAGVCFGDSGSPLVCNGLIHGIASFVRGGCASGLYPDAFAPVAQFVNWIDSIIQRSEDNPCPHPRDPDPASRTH
Experimental: The test compound (inhibitor) is dissolved in DMSO in a vial to produce an inhibitor stock solution which has a concentration in the range of 200-1000 μM. The inhibitor stock solution is diluted (1:4, 1:16 and 1:64) into assay vials (vials 1, 2 and 3 respectively) containing 2.4 mL of buffer solution (50 mM N- [2-hydroxyethyl ] piperazine-N'-[2-ethanesulfonic acid]/NaOH, 500 mM NaCl, pH 7.8 at 25° C.) and DMSO is added so that the total volume in each vial is 3.2 mL. 70 μL, 50 μL, 35 μL and 25 μL of inhibitor from assay vial 1 is placed into the first four wells of a 96-well microtiter plate and each well is made up to 90 μL total volume with the addition of a 25% DMSO/buffer solution. The inhibitor from assay vials 2 and 3 is processed in a similar manner and placed in wells 5-12 respectively to afford a total of 12 different inhibitor concentrations. Four wells (wells 13-16) containing 90 μL of the 25% DMSO/buffer solution but no inhibitor are also run simultaneously with the inhibited wells as a control. 150 μL of substrate solution (prepared by the addition of 500 μL of the human leukocyte elastase (HLE) substrate MeOSuc-Ala-Ala-Pro-Val-pNA (18.7 mM in DMSO) to 19.5 mL of buffer solution) is then added simultaneously into each of the 16 wells and the solution in each well was thoroughly mixed.
The 96-well microtiter plate is placed into a Microplate Reader #89815A spectrophotometer and 110 μL of the enzyme solution (prepared as follows: a mixture of 20 mL of buffer solution and 20 mg of bovine serum albumen is gently vortexed in a scintillation vial and 5 μL HLE stock solution (1 mg/mL dissolved in deionized water) is added) is added simultaneously to each of the 16 wells. Each of the solutions in the wells is throughly mixed and then the time-dependent absorbance data is collected at an absorbance of 410 nm until the assay is complete. It should be noted that although this assay method can be done manually, it is preferred to perform the assay robotically using a Hewlett Packard MicroAssay System Robot.
A plot of the absorbance versus time data thus obtained affords progress curves the final slope of which is equal to the final steady-state velocities (VF). Using the program ENZFITTER (Elsevier software), the progress curves for the four control assays ([I]=0) are fit by linear regression to yield the enzyme reaction velocity values in the absences of inhibitor (Vo) which are averaged to produce a single fixed value. The inhibition constant Ki (nM) is then obtained from a plot of [formula] which affords a linear plot wherein: [formula] and [S] is the concentration of the substrate and Km is the Michaelis constant.
Table II summarizes the results obtained from the testing of representative compounds of the invention for human leukocyte elastase inhibitory activity.

**Q.** How did the Ki turn out when `CCCC1NS(=O)(=O)N(COC(=O)c2c(Cl)cccc2Cl)C1=O` (stereo not shown) [1(f), 2-(2,6-dichlorophenylcarbonyloxymethyl)-4-propyl-1,2,5-thiadiazolidin-3-one 1,1-dioxide] was run?
**A.** The Ki was 12 nM.

**Q.** With `CC(C)C1NS(=O)(=O)N(COC(=O)c2c(Cl)cccc2Cl)C1=O` (stereo not shown) [2(f), 2-(2,6-dichlorophenylcarbonyloxymethyl)-4-isopropyl-1,2,5-thiadiazolidin-3-one 1,1-dioxide] as the compound, how does the Ki read?
**A.** The Ki was 350 nM.

**Q.** How did the Ki turn out when `CCCC1C(=O)N(COC(=O)c2c(Cl)cccc2Cl)S(=O)(=O)N1C` (stereo not shown) [3(i), 2-(2,6-dichlorophenylcarbonyloxy-methyl)-4-propyl-5-methyl-1,2,5-thiadiazolidin-3-one 1,1-dioxide] was run?
**A.** Its Ki is 0.11 nM.

**Q.** For `CC(C)C1C(=O)N(COC(=O)c2c(Cl)cccc2Cl)S(=O)(=O)N1C` (stereo not shown) [4(f), 2-(2,6-dichlorophenylcarbonyloxymethyl)-4-isopropyl-5-methyl-1,2,5-thiadiazolidin-3-one 1,1-dioxide], which Ki is on record?
**A.** The Ki was 25 nM.

**Q.** Which Ki does the source give for `CCCC1C(=O)N(COC(=O)c2c(Cl)cccc2Cl)S(=O)(=O)N1CC` (stereo not shown) [5(e), 2-(2,6-dichloro-phenylcarbonyloxymethyl)-4-propyl-5-ethyl-1,2,5-thiadiazolidin-3-one 1,1-dioxide] here?
**A.** The Ki was 0.5 nM.

**Q.** `CCCC1(C)C(=O)N(COC(=O)c2c(Cl)cccc2Cl)S(=O)(=O)N1C` (stereo not shown) [6(k), 2-(2,6-dichlorophenylcarbonyloxymethyl)-4-methyl-4-propyl-5-methyl-1,2,5-thiadiazolidin-3-one 1,1-dioxide] was tested. Which Ki did it give?
**A.** Its Ki is 120 nM.

**Q.** For `CN1C(CCC(C)(C)Cl)C(=O)N(COC(=O)c2c(Cl)cccc2Cl)S1(=O)=O` (stereo not shown) [7(h), 2-(2,6-dichlorophenylcarbonyloxymethyl) -4-(3-methyl-3-chlorobutyl)-5-methyl-1,2,5-thiadiazolidin-3-one 1,1-dioxide], which Ki is on record?
**A.** The Ki was 4.4 nM.

**Q.** For `CC(C)CCC1C(=O)N(COC(=O)c2c(Cl)cccc2Cl)S(=O)(=O)N1C` (stereo not shown) [8(i)], which Ki is on record?
**A.** The Ki was 0.06 nM.

**Q.** `CC(C)CCC1C(=O)N(COC(=O)c2c(Cl)ccc(OCCN3CCCC3)c2Cl)S(=O)(=O)N1C` (stereo not shown) [9(c), 2-(2,6-dichloro-3-(2-pyrrolidinoethoxy)phenylcarbonyloxymethyl)-4-(3-methylbutyl)-5-methyl-1,2,5-thiadiazolidin-3-one 1,1-dioxide hydrochloride] was tested. Which Ki did it give?
**A.** Its Ki is 0.26 nM.

**Q.** For `CC(C)CCC1C(=O)N(COC(=O)c2c(Cl)ccc(OCCN3CCOCC3)c2Cl)S(=O)(=O)N1C` (stereo not shown) [10(b), 2-(2,6-dichloro-3-[2-(4-morpholino)ethoxy]phenyl-carbonyloxymethyl)-4-(3-methylbutyl)-5-methyl-1,2,5-thiadiazolidin-3-one 1,1-dioxide], which Ki is on record?
**A.** The Ki was 0.2 nM.

**Q.** For `CN1C(Cc2ccccc2)C(=O)N(COC(=O)c2c(Cl)cccc2Cl)S1(=O)=O` (stereo not shown) [11(g), 2-(2,6-dichloro-phenylcarbonyloxymethyl)-4-phenylmethyl-5-methyl-1,2,5-thiadiazolidin-3-one 1,1-dioxide], which Ki is on record?
**A.** The Ki was 0.62 nM.

**Q.** For `O=C(OCN1C(=O)C2CCCCN2S1(=O)=O)c1c(Cl)cccc1Cl` (stereo not shown) [13(f), 2-(2,6-dichlorophenylcarbonyloxymethyl)-1,2,5-thiadiazolo [2,3-a]3,3a,4,5,6,7-hexahydropyridine-3-one 1:1-dioxide], which Ki is on record?
**A.** Its Ki is 22 nM.

**Q.** With `O=C(OCN1C(=O)C2CCCN2S1(=O)=O)c1c(Cl)cccc1Cl` (stereo not shown) [14(f), 2-(2,6-dichlorophenylcarbonyloxymethyl) tetrahydropyrrolo[1,2-b]-1,2,5-thiadiazol-3(2H)-one 1,1-dioxide] as the compound, how does the Ki read?
**A.** The Ki was 170 nM.

**Q.** For `O=C(OCN1C(=O)C2C3CCC(C3)N2S1(=O)=O)c1c(Cl)cccc1Cl` (stereo not shown) [15(i)], which Ki is on record?
**A.** Its Ki is 3700 nM.

**Q.** `CCCC1CCCN2C1C(=O)N(COC(=O)c1c(Cl)cccc1Cl)S2(=O)=O` (stereo not shown) [16(j), 2-(2,6-dichlorophenylcarbonyloxymethyl)-4-propyl-1,2,5-thiadiazolo [2,3-a]3,3a, 4,5,6,7-hexahydropyridine-3-one 1,1-dioxide] was tested. Which Ki did it give?
**A.** Its Ki is 9.6 nM.

**Q.** `CCCC1C(=O)N(COC(=O)c2c(Cl)ccc(OCCN3CCOCC3)c2Cl)S(=O)(=O)N1CC` (stereo not shown) [Example 12, 2-(2,6-dichloro-3-[2-(4-morpholino]ethoxy]-phenylcarbonyloxymethyl)-4-propyl-5-ethyl-1,2,5-thiadiazolidin-3-one 1,1-dioxide methanesulfonate] was tested. Which Ki did it give?
**A.** The Ki was 0.45 nM.

Source: US5556909A, “Substituted 2-arylcarbonyloxymethyl-1,2,5-thiadiazolidin-3-one 1,1-dioxide derivatives and compositions and method of use thereof” (Sanofi Winthrop Inc., priority 1994, dated 1996)
